Measurements: patent US4921850A, “3-propenylcephem derivative” (Eisai Co., Ltd., priority 1986, dated 1990)
Values after ≈ are worked out from the molar mass of the structure shown. Like-named read-outs stand apart in the source and are kept apart here.

Legend:
Assay in all cases: Anti-bacterial activity (MIC), agar dilution
Type in all cases: cell-based
[1] = test system: Staph. aureus 209-P; conditions: Staph. aureus 209-P, agar dilution, about 10^6 CFU/ml, 18 hours, 37° C.
Protocol: (§1) MIC (μg/ml) were determined by an agar dilution method [Chemotherapy (Japan), 29, 76-79, 1981]. Overnight cultures of the bacterial strains in Mueller-Hinton broth were diluted to final concentration of about 10^6 CFU/ml, and 5 μl of each bacterial suspension was spotted onto Mueller-Hinton agar plates that contained twofold serial dilutions of antibiotics. MICs were measured after incubation for 18 hours at 37° C.

[2] = test system: Escher. coli NIHJ
Protocol: as §1

[3] = test system: Ser. marcescens ES-75
Protocol: as §1

[4] = test system: Kleb. pneumoniae EK-6; conditions: Kleb. pneumoniae EK-6, agar dilution, about 10^6 CFU/ml, 18 hours, 37° C.
Protocol: as §1

[5] = test system: Morganella morganii EP-14; conditions: about 10^6 CFU/ml, 37° C.
Protocol: as §1

[6] = test system: Pseud. aeruginosa EP-01; conditions: Pseud. aeruginosa EP-01, agar dilution, about 10^6 CFU/ml, 18 hours, 37° C.
Protocol: as §1

[7] = Staphylococcus aureus, 209P, 18 h, read-out: MIC
[8] = Escherichia coli, 18 h, Escher. coli NIHJ, agar dilution, about 10^6 CFU/ml, 18 hours, 37° C., read-out: MIC
[9] = Serratia marcescens, ES75, 18 h, Ser. marcescens ES-75, agar dilution, about 10^6 CFU/ml, 18 hours, 37° C., read-out: MIC
[10] = Klebsiella pneumoniae, EK6, 18 h, read-out: MIC
[11] = Morganella morganii, EP14, 18 h, read-out: MIC
[12] = Pseudomonas aeruginosa, EP01, 18 h, read-out: MIC
[13] = Escher. coli NIHJ, agar dilution, about 10^6 CFU/ml, 18 hours, 37° C.
[14] = Ser. marcescens ES-75, agar dilution, about 10^6 CFU/ml, 18 hours, 37° C.

Row | Structure (SMILES) | MIC [1, 7] [µg/mL] | MIC [2, 8] [µg/mL] | MIC [3, 9] [µg/mL] | MIC [4, 10] [µg/mL] | MIC [5, 11] [µg/mL] | MIC [6, 12] [µg/mL] | MIC [1] [µg/mL] | MIC [2, 13] [µg/mL] | MIC [3, 14] [µg/mL] | MIC [4] [µg/mL] | MIC ([5]; 18 hours) [µg/mL] | MIC [6] [µg/mL] | MIC ([2]; Escherichia coli, 18 h) [µg/mL] | MIC ([3]; Serratia marcescens, ES75, 18 h) [µg/mL]
1 | C[N+]1(C/C=C/C2=C(C(=O)[O-])N3C(=O)[C@@H](NC(=O)/C(=N\OCF)c4nsc(N)n4)[C@H]3SC2)C[C@H](O)C[C@H]1CO (stereo partly drawn) [Example 8, 7β-[2-(5-Amino-1,2,4-thiadiazol-3-yl)-(Z)-2-fluoromethoxyiminoacetamido]-3-[(E)-3-(4R-hydroxy-2S-hydroxymethyl-1-methyl-1-pyrrolidinio)-1-propen-1-yl]-3-cephem-4-carboxylate] | 0.2 (≈ 0.35 µM) | ≤ 0.025 | ≤ 0.025 | ≤ 0.025 | ≤ 0.025 | 0.8 (≈ 1.4 µM) | – | – | – | – | – | – | – | –
2 | NC(=O)C[N+]1(C/C=C/C2=C(C(=O)[O-])N3C(=O)[C@@H](NC(=O)/C(=N\OCF)c4nsc(N)n4)[C@H]3SC2)CCC(O)C1 (stereo partly drawn) [Example 9-2, 7β-[2-(5-Amino-1,2,4-thiadiazol-3-yl)-(Z)-2-fluoromethoxyiminoacetamido]-3-[(E)-3-(1-carbamoylmethyl-3-hydroxy-1-pyrrolidinio)-1-propen-1-yl]-3-cephem-4-carboxylate] | – | – | – | – | – | – | 0.4 (≈ 0.684 µM) | ≤ 0.025 | ≤ 0.025 | ≤ 0.025 | ≤ 0.025 | 0.8 (≈ 1.37 µM) | – | –
3 | NC(=O)C[N+]1(C/C=C/C2=C(C(=O)[O-])N3C(=O)[C@@H](NC(=O)/C(=N\OCF)c4nsc(N)n4)[C@H]3SC2)CCC(O)C1 (stereo partly drawn) [Example 9-3, 7β-[2-(5-Amino-1,2,4-thiadiazol-3-yl)-(Z)-2-fluoromethoxyiminoacetamido]-3-[(E)-3-(1-carbamoylmethyl-3-hydroxy-1-pyrrolidinio)-1-propen-1-yl]-3-cephem-4-carboxylate] | – | – | – | – | – | – | 0.4 (≈ 0.684 µM) | ≤ 0.025 | ≤ 0.025 | ≤ 0.025 | ≤ 0.025 | 0.8 (≈ 1.37 µM) | – | –
4 | N#CC[N+]1(C/C=C/C2=C(C(=O)[O-])N3C(=O)[C@@H](NC(=O)/C(=N\OCF)c4nsc(N)n4)[C@H]3SC2)CCCC1 [Example 14] | 0.2 (≈ 0.363 µM) | – | 0.05 (≈ 0.0908 µM) | ≤ 0.025 | ≤ 0.025 | 0.8 (≈ 1.45 µM) | – | – | – | – | – | – | ≤ 0.025 | –
5 | Nc1nc(/C(=N/OCF)C(=O)N[C@@H]2C(=O)N3C(C(=O)[O-])=C(/C=C/C[N+]4(CCO)CCC(O)C4)CS[C@H]23)ns1 (stereo partly drawn) [Example 15-1] | 0.4 (≈ 0.7 µM) | 0.05 (≈ 0.0875 µM) | ≤ 0.025 | ≤ 0.025 | ≤ 0.025 | 1.56 (≈ 2.73 µM) | – | – | – | – | – | – | – | –
6 | Nc1nc(/C(=N/OCF)C(=O)N[C@@H]2C(=O)N3C(C(=O)[O-])=C(/C=C/C[N+]4(CCO)CCC(O)C4)CS[C@H]23)ns1 (stereo partly drawn) [Example 15-2] | – | – | – | – | – | – | 0.4 (≈ 0.7 µM) | ≤ 0.025 | ≤ 0.025 | ≤ 0.025 | ≤ 0.025 | 1.56 (≈ 2.73 µM) | – | –
7 | Nc1nc(/C(=N/OCF)C(=O)N[C@@H]2C(=O)N3C(C(=O)[O-])=C(/C=C/C[N+]4(CCO)CCC[C@@H]4CO)CS[C@H]23)ns1 (stereo partly drawn) [Example 16] | 0.2 (≈ 0.342 µM) | ≤ 0.025 | ≤ 0.025 | ≤ 0.025 | ≤ 0.025 | 0.8 (≈ 1.37 µM) | – | – | – | – | – | – | – | –
8 | NC(=O)C[N+]1(C/C=C/C2=C(C(=O)[O-])N3C(=O)[C@@H](NC(=O)/C(=N\OCF)c4nsc(N)n4)[C@H]3SC2)CCC[C@@H]1CO (stereo partly drawn) [Example 17] | 0.4 (≈ 0.668 µM) | ≤ 0.025 | ≤ 0.025 | ≤ 0.025 | ≤ 0.025 | 0.8 (≈ 1.34 µM) | – | – | – | – | – | – | – | –
9 | NC(=O)C[N+]1(C/C=C/C2=C(C(=O)[O-])N3C(=O)[C@@H](NC(=O)/C(=N\OCF)c4nsc(N)n4)[C@H]3SC2)CCCC1 [Example 19] | 0.2 (≈ 0.352 µM) | ≤ 0.025 | – | ≤ 0.025 | ≤ 0.025 | 0.8 (≈ 1.41 µM) | – | – | – | – | – | – | – | 0.5 (≈ 0.879 µM)
10 | Nc1nc(/C(=N/OCF)C(=O)N[C@@H]2C(=O)N3C(C(=O)[O-])=C(/C=C/C[N+]4(CCO)CCCC4)CS[C@H]23)ns1 [Example 20] | 0.2 (≈ 0.36 µM) | ≤ 0.025 | 0.05 (≈ 0.09 µM) | ≤ 0.025 | ≤ 0.025 | 1.56 (≈ 2.81 µM) | – | – | – | – | – | – | – | –
11 | NCC[N+]1(C/C=C/C2=C(C(=O)[O-])N3C(=O)[C@@H](NC(=O)/C(=N\OCF)c4nsc(N)n4)[C@H]3SC2)CCCC1 [Example 22] | 0.2 (≈ 0.361 µM) | 0.05 (≈ 0.0902 µM) | 0.2 (≈ 0.361 µM) | 0.05 (≈ 0.0902 µM) | 0.05 (≈ 0.0902 µM) | 3.13 (≈ 5.64 µM) | – | – | – | – | – | – | – | –
12 | C[N+]1(C/C=C/C2=C(C(=O)[O-])N3C(=O)[C@@H](NC(=O)/C(=N\OCF)c4nsc(N)n4)[C@H]3SC2)CCN(C=O)CC1 [Example 24] | 0.2 (≈ 0.352 µM) | ≤ 0.025 | ≤ 0.025 | ≤ 0.025 | ≤ 0.025 | 1.56 (≈ 2.74 µM) | – | – | – | – | – | – | – | –
